Assay results as given in ChEMBL document CHEMBL1201862, “PubChem BioAssay data set” (2004).
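In this assay, cells in 96-well plates receive the compound at five concentrations for 48 hours. Endpoints are linearly interpolated between the surrounding concentrations. GI50 = concentration required for 50% inhibition of growth.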 Calls of active or inactive are those of the source. Cut-off read from the data, not from the text of the source: active = GI50 up to about 1.1 µM and inactive = higher.

Legend:
Assay in all cases: DTP human tumour cell line panel, 48 h
A549 = system: A549
CCRF-CEM = system: CCRF-CEM
EKVX = system: EKVX
IGROV-1 = system: IGROV-1
KM12 = system: KM12
LOX IMVI = system: LOX IMVI
LXFL 529 = system: LXFL 529
NCI-H23 = system: NCI-H23
OVCAR-8 = system: OVCAR-8
SK-MEL-2 = system: SK-MEL-2
UACC-257 = system: UACC-257
UACC-62 = system: UACC-62
UO-31 = system: UO-31
A498 = system: A498
HT-29 = system: HT-29
U-251 = system: U-251
BT-549 = system: BT-549
MCF7 = system: MCF7
MDA-MB-435 = system: MDA-MB-435
MDA-N = system: MDA-N

SMILES | GI50 (A549) | GI50 (CCRF-CEM) | GI50 (EKVX) | GI50 (IGROV-1) | GI50 (KM12) | GI50 (LOX IMVI) | GI50 (LXFL 529) | GI50 (NCI-H23) | GI50 (OVCAR-8) | GI50 (SK-MEL-2) | GI50 (UACC-257) | GI50 (UACC-62) | GI50 (UO-31) | GI50 (A498) | GI50 (HT-29) | GI50 (U-251) | GI50 (BT-549) | GI50 (MCF7) | GI50 (MDA-MB-435) | GI50 (MDA-N)
O=C1N[C@H](Cc2c[nH]cn2)C(=O)N2CCC[C@@H]12 | > 100 µM (inactive) | > 100 µM (inactive) | > 100 µM (inactive) | > 100 µM (inactive) | > 100 µM (inactive) | > 100 µM (inactive) | > 100 µM (inactive) | > 100 µM (inactive) | > 100 µM (inactive) | > 100 µM (inactive) | > 100 µM (inactive) | > 100 µM (inactive) | > 100 µM (inactive) | – | – | – | – | – | – | –
Cc1cc(O)c2c3c1C(=O)Oc1c(CO)c(O)c(C(=O)O)c(c1O3)C=NN=Cc1c3c(c(CO)c(O)c1C(=O)O)OC(=O)c1c(C)cc(O)c(c1O3)C=NN=C2 | > 100 µM (inactive) | – | > 100 µM (inactive) | > 100 µM (inactive) | 48.6 µM (inactive) | > 100 µM (inactive) | > 100 µM (inactive) | > 100 µM (inactive) | > 100 µM (inactive) | – | > 100 µM (inactive) | > 100 µM (inactive) | > 100 µM (inactive) | > 100 µM (inactive) | > 100 µM (inactive) | > 100 µM (inactive) | – | – | – | –
N#Cc1c(-c2ccc(Cl)c(Cl)c2)c(-c2ccc(Cl)c(Cl)c2)nn(CC(=O)O)c1=O | 87.7 µM (inactive) | 48.2 µM (inactive) | > 100 µM (inactive) | > 100 µM (inactive) | 43.7 µM (inactive) | 41.3 µM (inactive) | 72.4 µM (inactive) | – | 57 µM (inactive) | > 100 µM (inactive) | 66.2 µM (inactive) | > 100 µM (inactive) | 57.8 µM (inactive) | – | 33.3 µM (inactive) | 32.1 µM (inactive) | – | – | – | –
O/N=C1/C(=C/c2ccc(Cl)c(Cl)c2)CCCC1C(NO)c1ccc(Cl)c(Cl)c1 (stereo unspecified) | 17.2 µM (inactive) | 17.2 µM (inactive) | 21.9 µM (inactive) | 19.9 µM (inactive) | 18 µM (inactive) | – | 15.7 µM (inactive) | 17.3 µM (inactive) | 18.7 µM (inactive) | 17.4 µM (inactive) | 18.7 µM (inactive) | 18 µM (inactive) | 18.7 µM (inactive) | 14.4 µM (inactive) | 16.7 µM (inactive) | 17.9 µM (inactive) | – | – | – | –
CCCC(C)C[C@@H](C)CC(C)/C=C(\C)c1oc(=O)c(C)c(O)c1C.CC[C@@H](C)C[C@@H](C)C[C@@H](C)/C=C(\C)c1oc(=O)c(C)c(O)c1C (stereo partly specified) | 17.3 µM (inactive) | – | 15.2 µM (inactive) | – | 20.4 µM (inactive) | 17.1 µM (inactive) | 13.2 µM (inactive) | 10 µM (inactive) | 20.3 µM (inactive) | 9.48 µM (inactive) | 14.7 µM (inactive) | – | 13.6 µM (inactive) | – | 13.9 µM (inactive) | 14.5 µM (inactive) | – | – | – | –
Cc1c(Cl)c2ccccc2n1S(=O)(=O)c1ccccc1 | 41.3 µM (inactive) | 48.5 µM (inactive) | – | > 100 µM (inactive) | 37.9 µM (inactive) | – | 42.1 µM (inactive) | 41.1 µM (inactive) | 52.6 µM (inactive) | 28.8 µM (inactive) | 53.1 µM (inactive) | 87.3 µM (inactive) | 26.1 µM (inactive) | – | 46 µM (inactive) | 88.9 µM (inactive) | – | – | – | –
CC(C)C(NC(=O)Oc1ccccc1)C(=O)NC1c2c(Br)sc(Br)c2C(=O)C1O (stereo unspecified) | > 25 µM (inactive) | 7.62 µM (inactive) | 6.4 µM (inactive) | 4.47 µM (inactive) | > 25 µM (inactive) | 4.98 µM (inactive) | – | 4.8 µM (inactive) | 4.6 µM (inactive) | 7.33 µM (inactive) | 4.72 µM (inactive) | 4.02 µM (inactive) | 9.64 µM (inactive) | > 25 µM (inactive) | 4.2 µM (inactive) | 5.31 µM (inactive) | 3.67 µM (inactive) | > 25 µM (inactive) | 6.68 µM (inactive) | 11.6 µM (inactive)
Cc1no[n+]([O-])c1/C=N/NS(=O)(=O)c1ccccc1 | > 100 µM (inactive) | > 10 µM (inactive) | > 100 µM (inactive) | > 100 µM (inactive) | > 100 µM (inactive) | – | > 100 µM (inactive) | > 100 µM (inactive) | > 100 µM (inactive) | > 100 µM (inactive) | – | > 100 µM (inactive) | > 100 µM (inactive) | 75.3 µM (inactive) | > 100 µM (inactive) | > 100 µM (inactive) | – | – | – | –
COc1ccc([N+]2=NC(c3ccc([N+](=O)[O-])cc3)=NN(c3ccccc3)C2)cc1.[O-][Cl+3]([O-])([O-])[O-] | > 100 µM (inactive) | 21.2 µM (inactive) | 91.2 µM (inactive) | 33.2 µM (inactive) | 90.2 µM (inactive) | 68.5 µM (inactive) | 47.3 µM (inactive) | > 100 µM (inactive) | > 100 µM (inactive) | – | > 100 µM (inactive) | – | 51.5 µM (inactive) | > 100 µM (inactive) | 62.7 µM (inactive) | 36.1 µM (inactive) | – | – | – | –
COCC12CCC(OC)C34C5CC6(O)C(OC)C=C(C5C6OC(=O)c5ccccc5)C(C(OC)C13)C4N(C)C2 (stereo unspecified) | > 100 µM (inactive) | > 100 µM (inactive) | > 100 µM (inactive) | > 100 µM (inactive) | > 100 µM (inactive) | > 100 µM (inactive) | – | > 100 µM (inactive) | > 100 µM (inactive) | > 100 µM (inactive) | > 100 µM (inactive) | > 100 µM (inactive) | > 100 µM (inactive) | > 100 µM (inactive) | > 100 µM (inactive) | > 100 µM (inactive) | > 100 µM (inactive) | > 100 µM (inactive) | > 100 µM (inactive) | > 100 µM (inactive)
CC1=CCC([C@@](C)(O)CCCC(C)(C)N=C=S)CC1 (stereo partly specified) | 17.6 µM (inactive) | 22.2 µM (inactive) | 17 µM (inactive) | 20.2 µM (inactive) | 15.5 µM (inactive) | 16 µM (inactive) | – | 20.9 µM (inactive) | 17.7 µM (inactive) | 17.7 µM (inactive) | 19.4 µM (inactive) | 16.9 µM (inactive) | 13.7 µM (inactive) | 15.3 µM (inactive) | 17.7 µM (inactive) | 18.8 µM (inactive) | 17.8 µM (inactive) | 18.7 µM (inactive) | 17.1 µM (inactive) | 18.4 µM (inactive)
COc1ccc(C2CC(c3ccc(NS(=O)(=O)c4cc([N+](=O)[O-])ccc4C)cc3)=NN2S(=O)(=O)c2cc([N+](=O)[O-])ccc2C)cc1 (stereo unspecified) | 34.5 µM (inactive) | 65.2 µM (inactive) | 39.7 µM (inactive) | 44.4 µM (inactive) | 46 µM (inactive) | 68.1 µM (inactive) | – | 22.4 µM (inactive) | 71.9 µM (inactive) | 35.6 µM (inactive) | 30.6 µM (inactive) | 26.4 µM (inactive) | 32.1 µM (inactive) | 49.3 µM (inactive) | 50.4 µM (inactive) | 36.8 µM (inactive) | 36 µM (inactive) | 39 µM (inactive) | 46 µM (inactive) | 35.8 µM (inactive)
COc1cccc(C23CCCC(C2)NCC3Br)c1OC (stereo unspecified) | 3.66 µM (inactive) | 21.9 µM (inactive) | 28.4 µM (inactive) | 75.7 µM (inactive) | 35.1 µM (inactive) | 37.5 µM (inactive) | – | 15.3 µM (inactive) | 11.2 µM (inactive) | > 100 µM (inactive) | 8.39 µM (inactive) | 21.4 µM (inactive) | 47.4 µM (inactive) | 15.4 µM (inactive) | 37.3 µM (inactive) | 28.4 µM (inactive) | 15.6 µM (inactive) | 21.6 µM (inactive) | 39 µM (inactive) | 48.4 µM (inactive)
CC(C)=CCNc1ncnc2[nH]cnc12 | > 100 µM (inactive) | > 100 µM (inactive) | > 100 µM (inactive) | > 100 µM (inactive) | 99.8 µM (inactive) | > 100 µM (inactive) | – | > 100 µM (inactive) | > 100 µM (inactive) | > 100 µM (inactive) | 37.1 µM (inactive) | 88.5 µM (inactive) | > 100 µM (inactive) | > 100 µM (inactive) | > 100 µM (inactive) | > 100 µM (inactive) | > 100 µM (inactive) | > 100 µM (inactive) | > 100 µM (inactive) | > 100 µM (inactive)
O=C1C(Br)=Cc2c(Cl)sc(Cl)c21 | 24.6 µM (inactive) | 0.232 µM (active) | 7.24 µM (inactive) | 2.59 µM (inactive) | 6.5 µM (inactive) | 2.36 µM (inactive) | – | 8.85 µM (inactive) | 3.24 µM (inactive) | 13.6 µM (inactive) | 5.45 µM (inactive) | 7.91 µM (inactive) | 2.82 µM (inactive) | 23.9 µM (inactive) | 4.58 µM (inactive) | 2.59 µM (inactive) | 22.2 µM (inactive) | 2.44 µM (inactive) | 2.11 µM (inactive) | 2.44 µM (inactive)
COc1cccc2c1C(=O)c1c(O)c3c(c(O)c1C2=O)CC(O)(C(=O)CO)CC3OC1CC(N2CCOCC2C#N)C(O)C(C)O1 (stereo unspecified) | < 0.0001 µM (active) | < 0.0001 µM (active) | < 0.0001 µM (active) | > 0.01 µM (active) | < 0.0001 µM (active) | < 0.0001 µM (active) | – | < 0.0001 µM (active) | < 0.0001 µM (active) | < 0.0001 µM (active) | < 0.0001 µM (active) | < 0.0001 µM (active) | > 0.01 µM (active) | > 0.01 µM (active) | < 0.0001 µM (active) | < 0.0001 µM (active) | < 0.0001 µM (active) | < 0.0001 µM (active) | < 0.0001 µM (active) | < 0.0001 µM (active)
